Measured values from patent publication US8642597B2, “Pyrazole compounds for controlling invertebrate pests” (BASF SE, priority 2007, dated 2014).

Key:
Format in all cases: in vivo
[1] = system: Southern Armyworm (spodoptera eridania, 2nd instar larvae); experiment: Southern armyworm (spodoptera eridania, 2nd instar larvae), lima bean leaf dip test; conditions: foliar, 96 h, at 4 days, in comparison with untreated controls
Protocol: (§1) The active compounds were formulated in 50:50 (vol:vol) acetone:water and 100 ppm Kinetica™ surfactant.
A pair of first true leaves of Sieva lima bean was dipped in the test solution and allowed to dry. The leaf was then placed in a plastic perforated zip enclosure bag and ten 2nd instar larvae were added. At 4 days, observations were made of mortality and reduced feeding.

[2] = system: Mediterranean Fruitfly (Ceratitis capitata); experiment: Activity against Mediterranean fruitfly (Ceratitis capitata), insect diet microtiter plate test; conditions: 120 h, eggs treated with 2500 ppm, egg and larval mortality after 5 days
Protocol: The active compounds were formulated in 1:3 (vol:vol) DMSO:water.
For evaluating control of Mediterranean fruitfly the test unit consisted of microtiter plates containing an insect diet and 50 to 80 C. capitata eggs.
Different concentrations of formulated compounds were sprayed onto the insect diet at 5 μl, using a custom built micro atomizer, at two replications. After application, microtiter plates were incubated at 28±1° C. and 80±5% relative humidity for 5 days. Egg and larval mortality was then visually assessed.

[3] = system: Green Peach Aphid (Myzus persicae, Mixed Life Stages); experiment: Green peach aphid (Myzus persicae, mixed life stages), pepper leaf dip test; conditions: foliar, 120 h, after 5 days, in comparison with untreated controls
Text: as §1
Pepper plants in the 2nd leaf-pair stage (variety ‘California Wonder’) were infested with approximately 40 laboratory-reared aphids by placing infested leaf sections on top of the test plants. The leaf sections were removed after 24 hr. The leaves of the intact plants were dipped into gradient solutions of the test compound and allowed to dry. Test plants were maintained under fluorescent light (24 hour photoperiod) at about 25° C. and 20-40% relative humidity. Aphid mortality on the treated plants, relative to mortality on check plants, was determined after 5 days.

[4] = system: Vetch Aphid (Megoura viciae); experiment: Vetch aphid (Megoura viciae), bean leaf disk microtiterplate test; conditions: foliar, 144 h, concentration of the test solution 2500 mg/L, 6 days
Protocol: The active compounds were formulated in 1:3 (vol:vol) DMSO:water with different concentrations of formulated compounds.
Bean leaf disks were placed into microtiterplates filled with 0.8% agar-agar and 2.5 ppm OPUS™. The leaf disks were sprayed with 2.5 μl of the test solution and 5 to 8 adult aphids were placed into the microtiterplates which were then closed and kept at 23±1° C. and 50±5% relative humidity under fluorescent light for 6 days. Mortality was assessed on the basis of vital, reproduced aphids. Aphid mortality and fecundity was then visually assessed.

[5] = system: Boll Weevil (Anthonomus grandis); experiment: Boll weevil (Anthonomus grandis), insect diet microtiter plate test; conditions: 120 h, concentration of the test solution 2500 mg/L, egg and larval mortality after 5 days
Protocol: The compounds were formulated in 75:25 (vol:vol) water:DMSO.
For evaluating control of boll weevil (Anthonomus grandis) the test unit consisted of 24-well-microtiter plates containing an insect diet and 20-30 A. grandis eggs. Different concentrations of formulated compounds were sprayed onto the insect diet at 20 μl, using a custom built micro atomizer, at two replications. After application, the microtiter plates were incubated at 23±1° C. and 50±5% relative humidity for 5 days. Egg and larval mortality was then visually assessed.

Bean Aphid (Aphis fabae) = experiment: Bean aphid (Aphis fabae), nasturtium plant dip test; conditions: 72 h, after 3 days, in comparison with untreated controls
Text: as §1
Nasturtium plants grown in Metro mix in the 1st leaf-pair stage (variety ‘Mixed Jewel’) were infested with approximately 2-30 laboratory-reared aphids by placing infested cut plants on top of the test plants. The cut plants were removed after 24 hr. Each plant was dipped into the test solution to provide complete coverage of the foliage, stem, protruding seed surface and surrounding cube surface and allowed to dry in the fume hood. The treated plants were kept at about 25° C. with continuous fluorescent light. Aphid mortality is determined after 3 days.

[6] = system: Cotton Aphid (aphis gossypii, Mixed Life Stages); experiment: Cotton aphid (aphis gossypii, mixed life stages), cotyledon dip test; conditions: 120 h, mortality counts after 5 days, in comparison with untreated controls
Text: as §1
Cotton plants at the cotyledon stage (one plant per pot) were infested by placing a heavily infested leaf from the main colony on top of each cotyledon. The aphids were allowed to transfer to the host plant overnight, and the leaf used to transfer the aphids was removed. The cotyledons were dipped in the test solution and allowed to dry. After 5 days, mortality counts were made.

[7] = system: Cowpea Aphid (aphis craccivora); experiment: Cowpea aphid (aphis craccivora), spray on potted cowpea plants; conditions: population reduction assessed after 24, 72 and 120 hours, in comparison with untreated controls
Protocol: The active compounds were formulated in 50:50 (vol:vol) acetone:water. The test solution was prepared at the day of use.
Potted cowpea plants colonized with 100-150 aphids of various stages were sprayed after the pest population had been recorded. Population reduction was assessed after 24, 72, and 120 hours.

[8] = system: Silverleaf Whitefly (bemisia argentifolii, adult); experiment: Silverleaf whitefly (bemisia argentifolii, adult), cotton cotyledon dip test; conditions: 72 h, 3 days after treatment, in comparison with untreated controls
Protocol: as §1
Selected cotton plants were grown to the cotyledon state (one plant per pot). The cotyledons were dipped into the test solution to provide complete coverage of the foliage and placed in a well-vented area to dry. Each pot with treated seedling was placed in a plastic cup and 10 to 12 whitefly adults (approximately 3-5 day old) were introduced. The insects were collected using an aspirator and an 0.6 cm, non-toxic Tygon® tubing (R-3603) connected to a barrier pipette tip. The tip, containing the collected insects, was then gently inserted into the soil containing the treated plant, allowing insects to crawl out of the tip to reach the foliage for feeding. The cups were covered with a reusable screened lid (150 micron mesh polyester screen PeCap from Tetko Inc). Test plants were maintained in the holding room at about 25° C. and 20-40% relative humidity for 3 days avoiding direct exposure to the fluorescent light (24 hour photoperiod) to prevent trapping of heat inside the cup. Mortality was assessed 3 days after treatment of the plants.

[9] = system: Brown Planthopper (nilaparvata lugens); experiment: Brown planthopper (nilaparvata lugens), rice seedling spray test; conditions: after 72 hours, in comparison with untreated controls
Protocol: The active compounds were formulated as a 50:50 (vol:vol) acetone:water solution. Surfactant (Alkamuls EL 620) was added at the rate of 0.1% (vol/vol).
Rice seedlings were cleaned and washed 24 h before spraying. Potted rice seedlings were sprayed with 5 ml test solution, air dried, placed in cages and inoculated with 10 adults. Treated rice plants were kept at 28-29° C. and relative humidity of 50-60%. Percent mortality was recorded after 72 hours.

SMILES	mortality at 300 ppm [1]	mortality at 2500 ppm [2]	mortality at 300 ppm [3]	mortality at 2500 µg/mL [4]	mortality at 2500 µg/mL [5]	mortality at 10 ppm (Bean Aphid (Aphis fabae))	mortality at 300 ppm [6]	mortality at 300 ppm [7]	mortality at 300 ppm [8]	mortality at 300 ppm [9]
O=C(Nc1cccnc1)c1cn[nH]c1-c1cccs1 [Compound 77]	≥ 50%	50%	–	–	–	–	–	–	–	–
CCc1c(C(=O)Nc2cccnc2)cnn1-c1ccc(Cl)cc1 [Compound 143]	–	–	≥ 50%	≥ 80%	100%	≥ 90%	≥ 75%	≥ 75%	–	–
CCn1cc(C(=O)Nc2cccnc2)c(C(F)F)n1 [Compound 181]	–	50%	≥ 50%	≥ 80%	–	–	≥ 75%	≥ 75%	–	–
CN(C(=O)c1cn(CC(F)F)nc1C(F)(F)F)c1cccnc1 [Compound 234]	–	50%	–	≥ 80%	100%	–	–	–	–	–
CCn1cc(C(=O)Nc2cccnc2)cn1 [Compound 102]	–	–	≥ 50%	≥ 80%	100%	–	≥ 75%	≥ 75%	≥ 50%	–
CCCN(C(=O)c1cn(C)nc1C(F)(F)F)c1cccnc1 [Compound 129]	–	–	–	–	–	≥ 90%	–	–	–	–
CCc1c(C(=O)Nc2cccnc2)cnn1CC [Compound 184]	–	50%	≥ 50%	≥ 80%	–	–	≥ 75%	≥ 75%	–	–
O=C(Nc1cccnc1)c1cn(CC(F)F)nc1C(F)(F)F [Compound 232]	–	50%	–	≥ 80%	–	–	–	–	–	–
CN(C(=O)c1cn(C)nc1C(F)(F)F)c1cccnc1 [Compound 29, 1-Methyl-3-trifluoromethyl-1H-pyrazole-4-carboxylic acid methyl-pyridin-3-yl-amide]	–	–	≥ 50%	≥ 80%	–	≥ 90%	≥ 75%	≥ 75%	≥ 50%	–
CCn1cc(C(=O)N(C)c2cccnc2)c(C(F)(F)F)n1 [Compound 183]	–	50%	≥ 50%	≥ 80%	–	–	≥ 75%	≥ 75%	–	–
Cn1cc(C(=O)Nc2cccnc2)c(C(F)(F)F)n1 [Compound 13, 1-methyl-3-trifluoromethyl-1H-pyrazole-4-carboxylic acid pyridin-3-ylamide]	–	–	–	–	≥ 50%	≥ 90%	–	–	–	–
Cc1c(C(=O)Nc2cccnc2)cnn1-c1ccc([N+](=O)[O-])cc1 [Compound 231]	–	50%	–	≥ 80%	–	–	–	–	–	–
Cn1cc(C(=O)Nc2cccnc2)c(C(F)(F)F)n1 [Compound 100]	–	50%	–	≥ 80%	–	–	–	–	≥ 50%	–
Cc1c(C(=O)Nc2cccnc2)cnn1-c1ccc(Cl)cc1 [Compound 142]	–	–	≥ 50%	≥ 80%	–	≥ 90%	≥ 75%	≥ 75%	–	–
Cc1nn(-c2ccccc2)cc1C(=O)Nc1cccnc1 [Compound 84]	–	50%	–	–	–	–	–	–	≥ 50%	–
O=C(Nc1cccnc1)c1cnn(-c2ccc(F)cc2)c1C(F)F [Compound 94]	–	–	≥ 50%	≥ 80%	100%	≥ 90%	≥ 75%	≥ 75%	–	–
CCN(C(=O)c1cn(C)nc1C(F)(F)F)c1cccnc1 [Compound 127]	–	–	≥ 50%	≥ 80%	–	≥ 90%	≥ 75%	–	–	–
Cc1c(C(=O)Nc2cccnc2)cnn1-c1nccs1 [Compound 116]	–	–	≥ 50%	≥ 80%	100%	≥ 90%	≥ 75%	≥ 75%	–	–
O=C(Nc1cccnc1)c1cnn(-c2ccccc2)c1Cl [Compound 123]	–	–	≥ 50%	≥ 80%	–	≥ 90%	≥ 75%	≥ 75%	–	–
CCCc1c(C(=O)Nc2cccnc2)cnn1-c1ccc(Cl)cc1 [Compound 79]	≥ 50%	50%	≥ 50%	–	–	–	–	≥ 75%	–	–
Cn1ncc(C(=O)Nc2cccnc2)c1C(F)(F)F [Compound 109]	–	–	≥ 50%	≥ 80%	100%	–	≥ 75%	≥ 75%	≥ 50%	–
CN(C(=O)c1cn(C(F)F)nc1C(F)(F)F)c1cccnc1 [Compound 195]	–	–	≥ 50%	≥ 80%	–	–	≥ 75%	≥ 75%	–	≥ 50%
